Patent publication US20220306647A1, “NOVEL INDOLE-2-CARBOXAMIDES ACTIVE AGAINST THE HEPATITUS B VIRUS (HBV)” (AICURIS GMBH & CO. KG, priority 2019, published 2022)
pEC50, pIC50: −log10 of the molar value. Where two headings read alike, the source gives them in different places.

Columns and labels:
HBV (HepAD38 cells) = assay: HBV replication assay: determination of HBV DNA from the supernatants of HepAD38 cells; type: cell-based; settings: Hepatitis B virus, 144 h, HBV DNA in HepAD38 supernatant at day 6, qPCR, read-out: Cell activity
Procedure: Determination of HBV DNA from the Supernatants of HepAD38 Cells
The anti-HBV activity was analysed in the stable transfected cell line HepAD38, which has been described to secrete high levels of HBV virion particles (Ladner et al., 1997). In brief, HepAD38 cells were cultured at 37° C. at 5% CO2 and 95% humidity in 200 μl maintenance medium, which was Dulbecco's modified Eagle's medium/Nutrient Mixture F-12 (Gibco, Karlsruhe), 10% fetal bovine serum (PAN Biotech Aidenbach) supplemented with 50 μg/ml penicillin/streptomycin (Gibco, Karlsruhe), 2 mM L-glutamine (PAN Biotech, Aidenbach), 400 μg/ml G418 (AppliChem, Darmstadt) and 0.3 μg/ml tetracycline. Cells were subcultured once a week in a 1:5 ratio, but were usually not passaged more than ten times. For the assay 60,000 cells were seeded in maintenance medium without any tetracycline into each well of a 96-well plate and treated with serial half-log dilutions of test compound. To minimize edge effects the outer 36 wells of the plate were not used but were filled with assay medium. On each assay plate six wells for the virus control (untreated HepAD38 cells) and six wells for the cell control (HepAD38 cells treated with 0.3 μg/ml tetracycline) were allocated, respectively. In addition, one plate set with reference inhibitors like BAY 41-4109, entecavir, and lamivudine instead of screening compounds were prepared in each experiment. In general, experiments were performed thrice in triplicates. At day 6 HBV DNA from 100 μl filtrated cell culture supernatant (AcroPrep Advance 96 Filter Plate, […] Supor membran, PALL GmbH, Dreieich) was automatically purified on the MagNa Pure LC instrument using the MagNA Pure 96 DNA and Viral NA Small Volume Kit (Roche Diagnostics, Mannheim) according to the instructions of the manufacturer. EC50 values were calculated from relative copy numbers of HBV DNA In brief, 5 μl of the 100 μl eluate containing HBV DNA were subjected to PCR LC480 Probes Master Kit (Roche) together with 1 μM antisense primer […], 0.5 μM sense primer […], 0.3 μM hybprobes […]-FL and LC640-[…]-PH (TIBMolBiol, Berlin) to a final volume of 12.5 μl. The PCR was performed on the Light Cycler 480 real time system (Roche Diagnostics, Mannheim) using the following protocol: Pre-incubation for 1 min at 95° C., amplification: 40 cycles×(10 sec at 95° C., 50 sec at 60° C., 1 sec at 70° C.), cooling for 10 sec at 40° C. Viral load was quantitated against known standards using HBV plasmid DNA of pCH-9/3091 (Nassal et al., 1990, Cell 63: 1357-1363) and the LightCycler 480 SW 1.5 software (Roche Diagnostics, Mannheim) and EC50 values were calculated using non-linear regression with GraphPad Prism 6 (GraphPad Software Inc., La Jolla, USA).

[1] = target: T1, HBV core protein (C-terminal truncated core protein, 149 amino acids of the N-terminal assembly domain, BODIPY-FL labelled) (UniProt P03146); assay: Biochemical capsid assembly assay (fluorescence quenching)
T1 construct: fused on or other part: A single cysteine added after residue 149, at position 150; It carries the BODIPY-FL maleimide label
T1 sequence (P03146 whole entry, the tested form may be a part): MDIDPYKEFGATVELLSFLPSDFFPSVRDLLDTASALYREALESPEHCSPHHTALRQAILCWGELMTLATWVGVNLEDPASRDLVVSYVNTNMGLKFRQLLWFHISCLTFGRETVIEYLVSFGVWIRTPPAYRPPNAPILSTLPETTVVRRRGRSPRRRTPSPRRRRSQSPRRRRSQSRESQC
Procedure: The screening for assembly effector activity was done based on a fluorescence quenching assay published by Zlotnick et al. (2007). The C-terminal truncated core protein containing 149 amino acids of the N-terminal assembly domain fused to a unique cysteine residue at position 150 and was expressed in E. coli using the pET expression system (Merck Chemicals, Darmstadt). Purification of core dimer protein was performed using a sequence of size exclusion chromatography steps. In brief, the cell pellet from 1 L BL21 (DE3) Rosetta2 culture expressing the coding sequence of core protein cloned NdeI/XhoI into expression plasmid pET21b was treated for 1 h on ice with a native lysis buffer (Qproteome Bacterial Protein Prep Kit; Qiagen, Hilden). After a centrifugation step the supernatant was precipitated during 2 h stirring on ice with 0.23 g/ml of solid ammonium sulfate. Following further centrifugation the resulting pellet was resolved in buffer A (100 mM Tris, pH 7.5; 100 mM NaCl; 2 mM DTT) and was subsequently loaded onto a buffer A equilibrated CaptoCore 700 column (GE HealthCare, Frankfurt). The column flow through containing the assembled HBV capsid was dialyzed against buffer N (50 mM NaHCO3 pH 9.6; 5 mM DTT) before urea was added to a final concentration of 3M to dissociate the capsid into core dimers for 1.5 h on ice. The protein solution was then loaded onto a 1L Sephacryl S300 column. After elution with buffer N core dimer containing fractions were identified by SDS-PAGE and subsequently pooled and dialyzed against 50 mM HEPES pH 7.5; 5 mM DTT. To improve the assembly capacity of the purified core dimers a second round of assembly and disassembly starting with the addition of 5 M NaCl and including the size exclusion chromatography steps described above was performed. From the last chromatography step core dimer containing fractions were pooled and stored in aliquots at concentrations between 1.5 to 2.0 mg/ml at −80° C.
Immediately before labelling the core protein was reduced by adding freshly prepared DTT in a final concentration of 20 mM. After 40 min incubation on ice storage buffer and DTT was removed using a Sephadex G-25 column (GE HealthCare, Frankfurt) and 50 mM HEPES, pH 7.5. For labelling 1.6 mg/ml core protein was incubated at 4° C. and darkness overnight with BODIPY-FL maleimide (Invitrogen, Karlsruhe) in a final concentration of 1 mM. After labelling the free dye was removed by an additional desalting step using a Sephadex G-25 column. Labelled core dimers were stored in aliquots at 4° C. In the dimeric state the fluorescence signal of the labelled core protein is high and is quenched during the assembly of the core dimers to high molecular capsid structures. The screening assay was performed in black 384 well microtiter plates in a total assay volume of 10 μl using 50 mM HEPES pH 7.5 and 1.0 to 2.0 μM labelled core protein. Each screening compound was added in 8 different concentrations using a 0.5 log-unit serial dilution starting at a final concentration of 100 μM, 31.6 μM or 10 μM, In any case the DMSO concentration over the entire microtiter plate was 0.5%. The assembly reaction was started by the injection of NaCl to a final concentration of […] which induces the assembly process to approximately 25% of the maximal quenched signal. 6 min after starting the reaction the fluorescence signal was measured using a Clariostar plate reader (BMG Labtech, Ortenberg) with an excitation of 477 nm and an emission of 525 nm. As 100% and 0% assembly control HEPES buffer containing 2.5 M and 0 M NaCl was used. Experiments were performed thrice in triplicates. EC50 values were calculated by non-linear regression analysis using the Graph Pad Prism 6 software (GraphPad Software, La Jolla, USA).

[2] = assembly started with NaCl, fluorescence read after 6 min, read-out: Assembly activity

Row | Structure (SMILES) | pEC50 (HBV (HepAD38 cells)) | pIC50 [1, 2] | pIC50 ([1]; read-out: Assembly activity, assembly started with NaCl, fluorescence read after 6 min)
1 | COCC1(N(C)C(=O)c2noc3c2CN(C(=O)c2cc4ccccc4[nH]2)CC3)CC1 [Example 7, 5-(1H-indole-2-carbonyl)-N-[1-(methoxymethyl)cyclopropyl]-N-methyl-4H,5H,6H,7H-[1,2]oxazolo[4,5-c]pyridine-3-carboxamide] | > 6.00 | > 5.30 | 
2 | CN(C(=O)c1noc2c1CN(C(=O)c1cc3ccccc3[nH]1)CC2)C1(c2ccc(C(=O)O)cc2)CC1 [Example 97, 4-{1-[N-methyl-5-(1H-indole-2-carbonyl)-4H,5H,6H,7H-[1,2]oxazolo[4,5-c]pyridine-3-amido]cyclopropyl}benzoic acid] | > 6.00 | > 5.30 | 
3 | Cc1c(F)ccc2[nH]c(C(=O)N3CCn4ncc(C(=O)N(C)C5(c6ccc(C(=O)O)cc6)CC5)c4C3)cc12 [Example 53, 4-{1-[N-methyl-5-(5-fluoro-4-methyl-1H-indole-2-carbonyl)-4H,5H,6H,7H-pyrazolo[1,5-a]pyrazine-3-amido]cyclopropyl}benzoic acid] | > 6.00 | > 5.30 | 
4 | CCc1cc(F)cc2[nH]c(C(=O)N3CCn4ncc(C(=O)N(C)C5(c6ccc(C(=O)O)cc6)CC5)c4C3)cc12 [Example 74, 4-{1-[N-methyl-5-(4-ethyl-6-fluoro-1H-indole-2-carbonyl)-4H,5H,6H,7H-pyrazolo[1,5-a]pyrazine-3-amido]cyclopropyl}benzoic acid] | > 6.00 | > 5.30 | 
5 | CN1C(=O)c2c3c(nn2CC12CC2)CCN(C(=O)c1cc2ccccc2[nH]1)C3 [Example 14, 12′-(1H-indole-2-carbonyl)-4′-methyl-4′,7′,8′,12′-tetraazaspiro[cyclopropane-1,5′-tricyclo[7.4.0.0^2′7]tridecane]-1′,8′-dien-3′-one] | > 6.00 | > 5.30 | 
6 | Cc1cc(F)cc2[nH]c(C(=O)N3CCc4onc(C(=O)N[C@H](C)C(F)(F)F)c4C3)cc12 [Example 107, 5-(6-fluoro-4-methyl-1H-indole-2-carbonyl)-N-[(2R)-1,1,1-trifluoropropan-2-yl]-4H,5H,6H,7H-[1,2]oxazolo[4,5-c]pyridine-3-carboxamide] | > 6.00 | > 5.30 | 
7 | CN(C(=O)c1noc2c1CN(C(=O)c1cc3ccccc3[nH]1)CC2)C1(CO)CC1 [Example 8, N-[I1-(hydroxymethyl)cyclopropyl]-5-(1H-indole-2-carbonyl)-N-methyl-4H,5H,6H,7H-[1,2]oxazolo[4,5-c]pyridine-3-carboxamide] | > 6.00 | > 5.30 | 
8 | CN(C(=O)c1noc2c1CN(C(=O)c1cc3ccccc3[nH]1)CC2)C1CC1 [Example 11, N-cyclopropyl-5-(1H-indole-2-carbonyl)-N-methyl-4H,5H,6H,7H-[1,2]oxazolo[4,5-c]pyridine-3-carboxamide] | > 4.00 | > 5.30 | 
9 | C[C@@H](NC(=O)c1noc2c1CN(C(=O)c1cc3ccccc3[nH]1)CC2)C(F)(F)F [Example 46, 5-(1H-indole-2-carbonyl)-N-[(2R)-1,1,1-trifluoropropan-2-yl]-4H,5H,6H,7H-[1,2]oxazolo[4,5-c]pyridine-3-carboxamide] | > 6.00 |  | > 5.30
10 | CN(C(=O)c1cnn2c1CN(C(=O)c1cc3c(F)ccc(F)c3[nH]1)CC2)C1(c2ccc(C(=O)O)cc2)CC1 [Example 76, 4-{1-[N-methyl-5-(4,7-difluoro-1H-indole-2-carbonyl)-4H,5H,6H,7H-pyrazolo[1,5-a]pyrazine-3-amido]cyclopropyl}benzoic acid] | > 6.00 | > 5.30 | 
11 | CN(C(=O)c1cnn2c1CN(C(=O)c1cc3ccccc3[nH]1)CC2)C1(c2ccc(C(=O)O)cc2)CC1 [Example 12, 4-{1-[N-methyl-5-(1H-indole-2-carbonyl)-4H,5H,6H,7H-pyrazolo[1,5-a]pyrazine-3-amido]cyclopropyl}benzoic acid] | > 6.00 | > 5.30 | 
12 | COCC1(N(C)C(=O)c2noc3c2CN(C(=O)c2cc4c(Cl)cccc4[nH]2)CC3)CC1 [Example 5, 5-(4-chloro-1H-indole-2-carbonyl)-N-[1-(methoxymethyl)cyclopropyl]-N-methyl-4H,5H,6H,7H-[1,2]oxazolo[4,5-c]pyridine-3-carboxamide] | > 6.00 | > 5.30 | 
13 | CN(C(=O)c1cnn2c1CN(C(=O)c1cc3ccccc3[nH]1)CC2)C1(c2cccc(C(=O)O)c2)CC1 [Example 13, 3-{1-[N-methyl-5-(1H-indole-2-carbonyl)-4H,5H,6H,7H-pyrazolo[1,5-a]pyrazine-3-amido]cyclopropyl}benzoic acid] | 5.00 to 6.00 | > 5.30 | 
14 | O=C(c1cc2ccccc2[nH]1)N1CCc2onc(C(=O)N3CCC(F)(F)C3)c2C1 [Example 25, 2-[3-(3,3-difluoropyrrolidine-1-carbonyl)-4H,5H,6H,7H-[1,2]oxazolo[4,5-c]pyridine-5-carbonyl]-1H-indole] | 5.00 to 6.00 |  | 
15 | O=C(c1cc2ccccc2[nH]1)N1CCc2onc(C(=O)N3CCCC34CC4)c2C1 [Example 1, 2-(3-{4-azaspiro[2.4]heptane-4-carbonyl}-4H,5H,6H,7H-[1,2]oxazolo[4,5-c]pyridine-5-carbonyl)-1H-indole] | 5.00 to 6.00 |  | 
16 | CN(C(=O)c1noc2c1CN(C(=O)c1cc3ccccc3[nH]1)CC2)C1(COC(=O)c2ccccc2)CC1 [Example 9, {1-[N-methyl-5-(1H-indole-2-carbonyl)-4H,5H,6H,7H-[1,2]oxazolo[4,5-c]pyridine-3-amido]cyclopropyl}methyl benzoate] | > 6.00 |  | 
